# PubChem BioAssay AID1259407 (Chemical Carcinogenesis Research Information System (CCRIS), 2018)
# Activity calls are given as the source filed them. No rule for the calls is given here.
# System: CCRIS mutagenicity, Ames/micronucleus/aberration tests
# Assay: CCRIS mutagenicity studies
# Details: Test System: AMES SALMONELLA TYPHIMURIUM
smiles,measurement,setting,value
Nc1ccc(-c2ccccc2)cc1,mutagenic call,"Strain/Indicator: DJ400, Metabolic Activation: TOBACCO TX1 CELLS, Method: PREINCUBATION",inactive; negative
same,mutagenic call,"Strain/Indicator: DJ460, Metabolic Activation: TOBACCO TX1 CELLS, Method: PREINCUBATION",active; positive
same,mutagenic call,"Strain/Indicator: MP110, Metabolic Activation: TOBACCO TX1 CELLS, Method: PREINCUBATION",inactive; negative
same,mutagenic call,"Strain/Indicator: MP120, Metabolic Activation: TOBACCO TX1 CELLS, Method: PREINCUBATION",inactive; negative
same,mutagenic call,"Strain/Indicator: MP208, Metabolic Activation: TOBACCO CELL-FREE TXIMX, Method: PREINCUBATION",active; positive
same,mutagenic call,"Strain/Indicator: MP219, Metabolic Activation: TOBACCO CELL-FREE TXIMX, Method: PREINCUBATION",active; positive
same,mutagenic call,"Strain/Indicator: TA97, Metabolic Activation: NONE, Method: STANDARD PLATE",inactive; negative
same,mutagenic call,"Strain/Indicator: TA97, Metabolic Activation: RAT, LIVER, S-9, AROCLOR 1254, Method: STANDARD PLATE",active; positive
same,mutagenic call,"Strain/Indicator: TA98(1,8-DNP6), Metabolic Activation: PLANT CELLS, Method: PREINCUBATION",active; positive
same,mutagenic call,"Strain/Indicator: TA98(1,8-DNP6), Metabolic Activation: TOBACCO CELL-FREE TXIMX, Method: PREINCUBATION",inactive; negative
same,mutagenic call,"Strain/Indicator: TA98(NR), Metabolic Activation: TOBACCO CELL-FREE TXIMX, Method: PREINCUBATION",active; positive
same,mutagenic call,"Strain/Indicator: TA98, Metabolic Activation: HUMAN, RED BLOOD CELL, CYTOSOL, Method: PREINCUBATION",active; positive
same,mutagenic call,"Strain/Indicator: TA98, Metabolic Activation: HUMAN, UROEPITHELIAL CELL CYTOSOL, Method: PREINCUBATION",inactive; negative
same,mutagenic call,"Strain/Indicator: TA98, Metabolic Activation: HUMAN, UROEPITHELIAL CELL, MICROSOMES, Method: PREINCUBATION",inactive; negative
same,mutagenic call,"Strain/Indicator: TA98, Metabolic Activation: HUMAN, UROEPITHELIAL CELL, S-9, Method: PREINCUBATION",inactive; negative
same,mutagenic call,"Strain/Indicator: TA98, Metabolic Activation: NONE, Method: PREINCUBATION",inactive; negative
same,mutagenic call,"Strain/Indicator: TA98, Metabolic Activation: PLANT CELLS, Method: PREINCUBATION",active; positive
same,mutagenic call,"Strain/Indicator: TA98, Metabolic Activation: RAT LIVER S-9, AROCLOR 1254, Method: PREINCUBATION",active; positive
same,mutagenic call,"Strain/Indicator: TA98, Metabolic Activation: RAT LIVER S-9, AROCLOR, Method: STANDARD PLATE",active; positive
same,mutagenic call,"Strain/Indicator: TA98, Metabolic Activation: RAT, BLADDER, S-9, PCB, Method: FLUCTUATION TEST",active; positive
same,mutagenic call,"Strain/Indicator: TA98, Metabolic Activation: RAT, LIVER, S-9, AROCLOR 1254 (4%), Method: STANDARD PLATE",active; positive
same,mutagenic call,"Strain/Indicator: TA98, Metabolic Activation: RAT, LIVER, S-9, KC500 OR PHENOBARBITAL, Method: LIQUID SUSPENSION",active; positive
same,mutagenic call,"Strain/Indicator: TA98, Metabolic Activation: TOBACCO CELL-FREE TXIMX, Method: PREINCUBATION",active; positive
same,mutagenic call,"Strain/Indicator: TA100 (1,8-DNP), Metabolic Activation: MOUSE LIVER S-9, AROCLOR 1254, 10%, Method: PREINCUBATION",active; positive
same,mutagenic call,"Strain/Indicator: TA100 (1,8-DNP), Metabolic Activation: RAT LIVER S-9, AROCLOR 1254, 10%, Method: PREINCUBATION",active; positive
same,mutagenic call,"Strain/Indicator: TA100(NR), Metabolic Activation: TOBACCO CELL-FREE TXIMX, Method: PREINCUBATION",active; positive
same,mutagenic call,"Strain/Indicator: TA100(TN:OAT), Metabolic Activation: TOBACCO CELL-FREE TXIMX, Method: PREINCUBATION",active; positive
same,mutagenic call,"Strain/Indicator: TA100, Metabolic Activation: MOUSE LIVER S-9, AROCLOR 1254, 10%, Method: PREINCUBATION",active; positive
same,mutagenic call,"Strain/Indicator: TA100, Metabolic Activation: NONE, Method: PREINCUBATION",inactive; negative
same,mutagenic call,"Strain/Indicator: TA100, Metabolic Activation: RAT LIVER S-9, AROCLOR 1254, 10%, Method: PREINCUBATION",active; positive
same,mutagenic call,"Strain/Indicator: TA100, Metabolic Activation: RAT LIVER S-9, AROCLOR 1254, Method: PREINCUBATION",active; positive
same,mutagenic call,"Strain/Indicator: TA100, Metabolic Activation: RAT LIVER S-9, AROCLOR, Method: STANDARD PLATE",active; positive
same,mutagenic call,"Strain/Indicator: TA100, Metabolic Activation: RAT, BLADDER, S-9, PCB, Method: FLUCTUATION TEST",inactive; negative
same,mutagenic call,"Strain/Indicator: TA100, Metabolic Activation: RAT, LIVER, S-9, KC500 OR PHENOBARBITAL, Method: LIQUID SUSPENSION",active; positive
